Values joined by “and” are separate entries in the source; they are usually repeats but may differ in a detail not shown here. Identical values can stand only once. Inconclusive results and toxic doses are left out.
System: L1210 leukemia ip in BDF1 mice, survival T/C
Assay: NCI In Vivo Anticancer Drug Screen. Data for tumor model L1210 Leukemia (intraperitoneal) in B6D2F1 (BDF1) mice
Settings: endpoint: mean survival time, higher = longer survival
Method in brief: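 Tumor cells were implanted, animals were treated, and survival was followed. The result divides the treated measurement by the vehicle-control measurement.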

[1] = dose: 100.0 mg/kg/injection, schedule: Q01DX009 (ip), vehicle: Klucel (hydroxypropylcellulose) (HPC)
[2] = dose: 200.0 mg/kg/injection, schedule: Q01DX009 (ip), vehicle: Klucel (hydroxypropylcellulose) (HPC)
[3] = dose: 50.0 mg/kg/injection, schedule: Q01DX009 (ip), vehicle: saline with Tween-80
[4] = dose: 100.0 mg/kg/injection, schedule: Q01DX009 (ip), vehicle: saline with Tween-80
[5] = dose: 100.0 mg/kg/injection, schedule: Q04DX003 (ip), vehicle: saline with Tween-80
[6] = dose: 200.0 mg/kg/injection, schedule: Q04DX003 (ip), vehicle: saline with Tween-80

Q: `Cc1ccc(C(C)C)cc1N1C(=O)C2C(C1=O)C1(Cl)C(Cl)=C(Cl)C2(Cl)C1(Cl)Cl` (stereo not drawn) was tested. Which T/C [1] did it give?
A: 92 % of control

Q: What about the T/C [2] of the same molecule?
A: 97 % of control

Q: What about the T/C (dose: 400.0 mg/kg/injection, schedule: Q01DX009 (ip), vehicle: Klucel (hydroxypropylcellulose) (HPC)) of the same molecule?
A: 91 % of control

Q: How did the T/C (dose: 100.0 mg/kg/injection, schedule: Q04DX003 (ip), vehicle: Klucel (hydroxypropylcellulose) (HPC)) turn out when `CN(C)C(=O)NCc1ccccc1` was run?
A: 90 % of control

Q: And the T/C (dose: 200.0 mg/kg/injection, schedule: Q04DX003 (ip), vehicle: Klucel (hydroxypropylcellulose) (HPC))?
A: 92 % of control

Q: And the T/C (dose: 400.0 mg/kg/injection, schedule: Q04DX003 (ip), vehicle: Klucel (hydroxypropylcellulose) (HPC))?
A: 98 % of control

Q: Which results are given for `CCN1/C(=C\c2ccc3cc(OC)ccc3[n+]2CC)[Se]c2ccc(OC)cc21`?
A: T/C (dose: 1.0 mg/kg/injection, schedule: Q01DX001 (ip), vehicle: other): 98 % of control; T/C (dose: 2.0 mg/kg/injection, schedule: Q01DX001 (ip), vehicle: other): 103 % of control; T/C (dose: 4.0 mg/kg/injection, schedule: Q01DX001 (ip), vehicle: other): 103 % of control

Q: `S=c1nc[nH]c2c1ncn2CCCc1ccccc1` was tested. Which T/C (dose: 50.0 mg/kg/injection, schedule: Q01DX001 (ip), vehicle: carboxymethylcellulose (CMC)) did it give?
A: 106 % of control

Q: What about the T/C (dose: 100.0 mg/kg/injection, schedule: Q01DX001 (ip), vehicle: carboxymethylcellulose (CMC)) of the same molecule?
A: 98 % of control

Q: What about the T/C (dose: 200.0 mg/kg/injection, schedule: Q01DX001 (ip), vehicle: carboxymethylcellulose (CMC)) of the same molecule?
A: 98 % of control

Q: What about the T/C (dose: 400.0 mg/kg/injection, schedule: Q01DX001 (ip), vehicle: carboxymethylcellulose (CMC)) of the same molecule?
A: 95 % of control

Q: Which T/C (dose: 3.13 mg/kg/injection, schedule: Q01DX009 (ip), vehicle: saline with Tween-80) does the source give for `C=CC[P+](Cc1ccccc1)(c1ccccc1)c1ccccc1` here?
A: 98 % of control

Q: And the T/C (dose: 6.25 mg/kg/injection, schedule: Q01DX009 (ip), vehicle: saline with Tween-80)?
A: 107 % of control

Q: What about the T/C (dose: 12.5 mg/kg/injection, schedule: Q01DX009 (ip), vehicle: saline with Tween-80) of the same molecule?
A: 104 % of control and 115 % of control

Q: With `C/C=C/C(=O)Nc1cc(C(F)(F)F)ccc1Cl` as the molecule, how does the T/C (dose: 25.0 mg/kg/injection, schedule: Q01DX009 (ip), vehicle: saline with Tween-80) read?
A: 93 % of control and 97 % of control

Q: What about the T/C [3] of the same molecule?
A: 97 % of control and 89 % of control

Q: And the T/C (dose: 50.0 mg/kg/injection, schedule: Q04DX003 (ip), vehicle: saline with Tween-80)?
A: 98 % of control

Q: What about the T/C (dose: 100.0 mg/kg/injection, schedule: Q01DX001 (ip), vehicle: saline with Tween-80) of the same molecule?
A: 98 % of control

Q: And the T/C [4]?
A: 96 % of control and 90 % of control

Q: And the T/C (dose: 100.0 mg/kg/injection, schedule: Q01DX009 (ip), vehicle: saline)?
A: 94 % of control and 102 % of control

Q: And the T/C (dose: 100.0 mg/kg/injection, schedule: Q04DX002 (ip), vehicle: saline)?
A: 102 % of control and 109 % of control

Q: And the T/C [5]?
A: 98 % of control and 89 % of control

Q: And the T/C (dose: 200.0 mg/kg/injection, schedule: Q01DX001 (ip), vehicle: saline with Tween-80)?
A: 88 % of control

Q: What about the T/C (dose: 200.0 mg/kg/injection, schedule: Q01DX009 (ip), vehicle: saline) of the same molecule?
A: 88 % of control

Q: And the T/C (dose: 200.0 mg/kg/injection, schedule: Q04DX002 (ip), vehicle: saline)?
A: 94 % of control and 103 % of control

Q: And the T/C [6]?
A: 109 % of control

Q: And the T/C (dose: 400.0 mg/kg/injection, schedule: Q04DX002 (ip), vehicle: saline)?
A: 95 % of control

Q: What about the T/C (dose: 400.0 mg/kg/injection, schedule: Q04DX003 (ip), vehicle: saline with Tween-80) of the same molecule?
A: 95 % of control

Q: `O=C(O)c1c(O)c(Br)cc(Br)c1O` was tested. Which T/C (dose: 100.0 mg/kg/injection, schedule: Q01DX001 (ip), vehicle: other) did it give?
A: 109 % of control

Q: What about the T/C (dose: 200.0 mg/kg/injection, schedule: Q01DX001 (ip), vehicle: other) of the same molecule?
A: 104 % of control

Q: And the T/C (dose: 400.0 mg/kg/injection, schedule: Q01DX001 (ip), vehicle: other)?
A: 90 % of control

Q: With `CCc1ccccc1NC(=O)Nc1nccs1` as the molecule, how does the T/C [1] read?
A: 116 % of control

Q: And the T/C [2]?
A: 110 % of control

Q: `CC1=NCCc2c1cc1c([nH]c3ccccc31)c2C` was tested. Which T/C (dose: 14.0 mg/kg/injection, schedule: Q01DX Z (ip), vehicle: carboxymethylcellulose (CMC)) did it give?
A: 106 % of control

Q: And the T/C (dose: 28.0 mg/kg/injection, schedule: Q01DX Z (ip), vehicle: carboxymethylcellulose (CMC))?
A: 107 % of control

Q: What about the T/C (dose: 44.0 mg/kg/injection, schedule: Q01DX009 (ip), vehicle: other) of the same molecule?
A: 121 % of control

Q: What about the T/C (dose: 44.0 mg/kg/injection, schedule: Q01DX009 (ip), vehicle: saline with Tween-80) of the same molecule?
A: 115 % of control

Q: What about the T/C [3] of the same molecule?
A: 101 % of control

Q: And the T/C (dose: 56.0 mg/kg/injection, schedule: Q01DX Z (ip), vehicle: carboxymethylcellulose (CMC))?
A: 113 % of control

Q: What about the T/C (dose: 100.0 mg/kg/injection, schedule: Q01DX009 (ip), vehicle: other) of the same molecule?
A: 151 % of control

Q: And the T/C [4]?
A: 151 % of control

Q: What about the T/C (dose: 100.0 mg/kg/injection, schedule: Q04DX003 (ip), vehicle: acetone) of the same molecule?
A: 110 % of control

Q: And the T/C [5]?
A: 110 % of control

Q: And the T/C (dose: 112.0 mg/kg/injection, schedule: Q01DX Z (ip), vehicle: carboxymethylcellulose (CMC))?
A: 123 % of control

Q: What about the T/C (dose: 150.0 mg/kg/injection, schedule: Q01DX009 (ip), vehicle: saline with Tween-80) of the same molecule?
A: 178 % of control

Q: What about the T/C (dose: 177.0 mg/kg/injection, schedule: Q04DX003 (ip), vehicle: saline with Tween-80) of the same molecule?
A: 122 % of control

Q: What about the T/C (dose: 200.0 mg/kg/injection, schedule: Q01DX009 (ip), vehicle: saline with Tween-80) of the same molecule?
A: 101 % of control

Q: And the T/C (dose: 200.0 mg/kg/injection, schedule: Q04DX003 (ip), vehicle: acetone)?
A: 102 % of control

Q: And the T/C [6]?
A: 115 % of control

Q: What about the T/C (dose: 210.0 mg/kg/injection, schedule: Q01DX009 (ip), vehicle: other) of the same molecule?
A: 98 % of control

Q: And the T/C (dose: 266.0 mg/kg/injection, schedule: Q04DX003 (ip), vehicle: saline with Tween-80)?
A: 124 % of control
